Experiments:
Test in all cases: Test C greenhouse herbicide test, pre- and postemergence
Assay type in all cases: in vivo
[1] = system: barnyardgrass (Echinochloa crus-galli)
Excerpt: (§1) Seeds of plant species selected from blackgrass (Alopecurus myosuroides), ryegrass, Italian (Italian ryegrass, Lolium multiflorum), wheat (winter wheat, Triticum aestivum), galium (catchweed bedstraw, Galium aparine), corn (Zea mays), large crabgrass, large (large crabgrass, Digitaria sanguinalis), foxtail, giant (giant foxtail, Setaria faberii), johnsongrass (Sorghum halepense), lambsquarters (Chenopodium album), morningglory (Ipomoea coccinea), nutsedge, yellow (yellow nutsedge, Cyperus esculentus), pigweed (Amaranthus retroflexus), ragweed (common ragweed, Ambrosia elatior), soybean (Glycine max), barnyardgrass (Echinochloa crus-galli), oilseed rape (Brassica napus), waterhemp (common waterhemp, Amaranthus rudis), and velvetleaf (Abutilon theophrasti) were planted into a blend of loam soil and sand and treated preemergence with test chemicals formulated in a non-phytotoxic solvent mixture which included a surfactant.
(§2) At the same time, plants selected from these crop and weed species and also chickweed (common chickweed, Stellaria media), kochia (Kochia scoparia), and oat, wild (wild oat, Avena fatua), were planted in pots containing Redi-Earth® planting medium (Scotts Company, 14111 Scottslawn Road, Marysville, Ohio 43041) comprising spaghnum peat moss, vermiculite, wetting agent and starter nutrients and treated with postemergence applications of test chemicals formulated in the same manner. Plants ranged in height from 2 to 18 cm (1- to 4-leaf stage) for postemergence treatments. Treated plants and controls were maintained in a greenhouse for 13 to 15 d, after which time all species were compared to controls and visually evaluated. Plant response ratings, summarized in Table C, are based on a scale of 0 to 100 where 0 is no effect and 100 is complete control. A dash (-) response means no test result.

[2] = system: blackgrass (Alopecurus myosuroides)
Excerpt: as §1, §2

[3] = system: corn (Zea mays)
Excerpt: as §1, §2

[4] = system: crabgrass, large (large crabgrass, Digitaria sanguinalis)
Excerpt: as §1, §2

[5] = system: foxtail, giant (giant foxtail, Setaria faberii)
Excerpt: as §1, §2

[6] = system: galium (catchweed bedstraw, Galium aparine)
Excerpt: as §1, §2

[7] = system: lambsquarters (Chenopodium album)
Excerpt: as §1, §2

[8] = system: morningglory (Ipomoea coccinea)
Excerpt: as §1, §2

[9] = system: nutsedge, yellow (yellow nutsedge, Cyperus esculentus)
Excerpt: as §1, §2

[10] = system: pigweed (Amaranthus retroflexus)
Excerpt: as §1, §2

[11] = system: ryegrass, Italian (Italian ryegrass, Lolium multiflorum)
Excerpt: as §1, §2

[12] = system: soybean (Glycine max)
Excerpt: as §1, §2

[13] = system: velvetleaf (Abutilon theophrasti)
Excerpt: as §1, §2

[14] = system: waterhemp (common waterhemp, Amaranthus rudis)
Excerpt: as §1, §2

[15] = system: wheat (winter wheat, Triticum aestivum)
Excerpt: as §1, §2

[16] = Postemergence, 31 g ai/ha, 0 to 100 scale (0 no effect, 100 complete control)
[17] = Postemergence, 125 g ai/ha, scale 0 to 100, 0 is no effect, 100 is complete control
[18] = Postemergence, 250 g ai/ha, scale 0 to 100, 0 no effect, 100 complete control, 13 to 15 d
[19] = Preemergence, 31 g ai/ha, scale 0 to 100, 0 is no effect, 100 is complete control
[20] = Preemergence, 62 g ai/ha, scale 0 to 100, 0 is no effect, 100 is complete control
[21] = Preemergence, 125 g ai/ha, scale 0 to 100, 0 is no effect, 100 is complete control
[22] = Preemergence, 250 g ai/ha, scale 0 to 100, 0 no effect, 100 complete control
[23] = postemergence, 62 g ai/ha, scale 0 to 100, 0 no effect, 100 complete control

Cc1nn(C)c(=O)c(-c2cccc3ccccc23)c1O [Compound 11, 5-hydroxy-2,6-dimethyl-4-(1-naphthalenyl)-3(2H)-pyridazinone]
Barnyardgrass plant response rating [1, 16]: 0
Plant response rating, Barnyardgrass [1, 17]: 5
Plant response rating, Barnyardgrass [1, 18]: 15
Plant response rating, Barnyardgrass [1, 19]: 0
Plant response rating, Barnyardgrass [1, 20]: 0
Plant response rating, Barnyardgrass [1, 21]: 10
Barnyardgrass plant response rating [1, 22]: 80
Barnyardgrass plant response rating [1, 23]: 0
Blackgrass plant response rating [2, 16]: 5
Plant response rating, Blackgrass [2, 17]: 30
Plant response rating, Blackgrass [2, 18]: 75
Plant response rating, Blackgrass [2, 19]: 35
Plant response rating, Blackgrass [2, 20]: 40
Plant response rating, Blackgrass [2, 21]: 50
Blackgrass plant response rating [2, 22]: 85
Blackgrass plant response rating [2, 23]: 15
Corn plant response rating [3, 16]: 0
Plant response rating, Corn [3, 17]: 0
Plant response rating, Corn [3, 18]: 0
Plant response rating, Corn [3, 19]: 0
Plant response rating, Corn [3, 20]: 0
Plant response rating, Corn [3, 21]: 0
Corn plant response rating [3, 22]: 0
Corn plant response rating [3, 23]: 0
Crabgrass, Large plant response rating [4, 16]: 0
Plant response rating, Crabgrass, Large [4, 17]: 0
Plant response rating, Crabgrass, Large [4, 18]: 10
Plant response rating, Crabgrass, Large [4, 19]: 0
Plant response rating, Crabgrass, Large [4, 20]: 0
Plant response rating, Crabgrass, Large [4, 21]: 40
Crabgrass, Large plant response rating [4, 22]: 40
Crabgrass, Large plant response rating [4, 23]: 0
Foxtail, Giant plant response rating [5, 16]: 5
Plant response rating, Foxtail, Giant [5, 17]: 10
Plant response rating, Foxtail, Giant [5, 18]: 30
Plant response rating, Foxtail, Giant [5, 19]: 0
Plant response rating, Foxtail, Giant [5, 20]: 35
Plant response rating, Foxtail, Giant [5, 21]: 50
Foxtail, Giant plant response rating [5, 22]: 90
Foxtail, Giant plant response rating [5, 23]: 5
Galium plant response rating [6, 16]: 75
Plant response rating, Galium [6, 17]: 90
Plant response rating, Galium [6, 18]: 90
Plant response rating, Galium [6, 19]: 85
Plant response rating, Galium [6, 20]: 90
Plant response rating, Galium [6, 21]: 90
Galium plant response rating [6, 22]: 95
Galium plant response rating [6, 23]: 90
Lambsquarters plant response rating [7, 16]: 80
Plant response rating, Lambsquarters [7, 17]: 90
Plant response rating, Lambsquarters [7, 18]: 90
Plant response rating, Lambsquarters [7, 19]: 70
Plant response rating, Lambsquarters [7, 20]: 100
Plant response rating, Lambsquarters [7, 21]: 100
Lambsquarters plant response rating [7, 22]: 100
Lambsquarters plant response rating [7, 23]: 90
Morningglory plant response rating [8, 16]: 70
Plant response rating, Morningglory [8, 17]: 90
Plant response rating, Morningglory [8, 18]: 98
Plant response rating, Morningglory [8, 19]: 100
Plant response rating, Morningglory [8, 20]: 100
Plant response rating, Morningglory [8, 21]: 100
Morningglory plant response rating [8, 22]: 100
Morningglory plant response rating [8, 23]: 80
Nutsedge, Yellow plant response rating [9, 16]: 5
Plant response rating, Nutsedge, Yellow [9, 17]: 30
Plant response rating, Nutsedge, Yellow [9, 18]: 45
Plant response rating, Nutsedge, Yellow [9, 19]: 0
Plant response rating, Nutsedge, Yellow [9, 20]: 5
Plant response rating, Nutsedge, Yellow [9, 21]: 10
Nutsedge, Yellow plant response rating [9, 22]: 30
Nutsedge, Yellow plant response rating [9, 23]: 15
Pigweed plant response rating [10, 16]: 50
Plant response rating, Pigweed [10, 17]: 90
Plant response rating, Pigweed [10, 18]: 95
Plant response rating, Pigweed [10, 19]: 0
Plant response rating, Pigweed [10, 20]: 100
Plant response rating, Pigweed [10, 21]: 100
Pigweed plant response rating [10, 22]: 100
Pigweed plant response rating [10, 23]: 90
Ryegrass, Italian plant response rating [11, 16]: 70
Plant response rating, Ryegrass, Italian [11, 17]: 90
Plant response rating, Ryegrass, Italian [11, 18]: 90
Plant response rating, Ryegrass, Italian [11, 19]: 90
Plant response rating, Ryegrass, Italian [11, 20]: 95
Plant response rating, Ryegrass, Italian [11, 21]: 100
Ryegrass, Italian plant response rating [11, 22]: 100
Ryegrass, Italian plant response rating [11, 23]: 70
Soybean plant response rating [12, 16]: 0
Plant response rating, Soybean [12, 17]: 0
Plant response rating, Soybean [12, 18]: 0
Plant response rating, Soybean [12, 20]: 0
Plant response rating, Soybean [12, 21]: 0
Soybean plant response rating [12, 22]: 0
Soybean plant response rating [12, 23]: 0
Velvetleaf plant response rating [13, 16]: 0
Plant response rating, Velvetleaf [13, 17]: 45
Plant response rating, Velvetleaf [13, 18]: 80
Plant response rating, Velvetleaf [13, 20]: 10
Plant response rating, Velvetleaf [13, 21]: 90
Velvetleaf plant response rating [13, 22]: 90
Velvetleaf plant response rating [13, 23]: 5
Waterhemp plant response rating [14, 16]: 80
Plant response rating, Waterhemp [14, 17]: 95
Plant response rating, Waterhemp [14, 18]: 95
Plant response rating, Waterhemp [14, 20]: 100
Plant response rating, Waterhemp [14, 21]: 100
Waterhemp plant response rating [14, 22]: 100
Waterhemp plant response rating [14, 23]: 80
Wheat plant response rating [15, 16]: 0
Plant response rating, Wheat [15, 17]: 5
Plant response rating, Wheat [15, 18]: 5
Plant response rating, Wheat [15, 20]: 0
Plant response rating, Wheat [15, 21]: 0
Wheat plant response rating [15, 22]: 10
Wheat plant response rating [15, 23]: 0
